Measurements published in a melting point compilation (Tetko et al.; mined from patent text by program, amines drawn as free bases though some values may be those of a salt).

Row | melting point | SMILES
1 | 32 to 32.5 °C | CCCCC(=O)/C=C/c1ccccc1
2 | 301 to 302 °C | CN(Cc1cc(C(F)(F)F)cc(C(F)(F)F)c1)C(=O)c1c(-c2ccc(C(=O)O)cc2)c2cccnc2c(=O)n1C
3 | 109 °C | C=CCOc1cccc(C(=O)c2ccccc2C(=O)O)c1
4 | 127 °C | COc1ccc(C2c3[nH]c4ccccc4c3CCN2C(=O)C=Cc2ccccc2)cc1 (stereo not given)
5 | 248 to 250 °C | CC(C)(C#N)c1ccc(C(=O)Nc2cn3cc(Cl)ccc3n2)cc1
6 | 132 to 134 °C | CCCOc1ccc(CCNC(=O)C=Cc2ccc(Cl)cc2Cl)cc1OCCC
7 | 154 to 155 °C | O=C(C1CCN(S(=O)(=O)c2ccc(Br)cc2)CC1)N1CCC(c2ccncc2)CC1
8 | 249 to 253 °C | CCN1CCN(c2ccnc3c(NC(=O)c4c(Cl)cccc4Cl)cccc23)C1=O
9 | 170 °C | CCCCC(=O)N(Cc1ccc(-c2ccccc2-c2nnnn2C(c2ccccc2)(c2ccccc2)c2ccccc2)cc1)C(C(=O)O)C(C)C (stereo not given)
10 | 125 to 127 °C | Oc1ccccc1OCCCN1CCC(=C(c2ccc(F)cc2)c2ccc(F)cc2)CC1
11 | 103 to 104 °C | Cc1nc(-c2cc(Cc3ccccc3)no2)sc1C(=O)NCc1ccccc1
12 | 119 to 121 °C | CSC(C(=O)N1CCOCC1)c1cccc(C(=O)c2ccccc2)c1N (stereo not given)
13 | 252 to 255 °C | CCCc1nc2c(N)nc3cc(-c4ccc(NC(C)=O)cc4)ccc3c2s1
14 | 232 to 236 °C | COc1cc(OC)cc(-n2c(-c3ccccc3)cc(=O)c(C)c2-c2ccccc2)c1
15 | 200 to 201 °C | Cc1nc(-c2ccc(C#N)cc2)sc1C(=O)N1CO[C@@](Cn2cncn2)(c2ccc(F)cc2F)[C@H]1C
16 | 218 to 222 °C | O=C1CC(c2ccccc2Cl)Cc2[nH]nc(-c3ccccc3)c21 (stereo not given)
17 | 81 to 83 °C | COC(=O)C(CC(C)C)NC(=O)C(CC(=O)c1ccccc1)Cc1ccccc1 (stereo not given)
18 | 72 to 74 °C | CS(=O)(=O)c1ccc(-n2nc(C(F)(F)F)cc2-c2ccc(-c3ccsc3)cc2)cc1F
19 | 196 to 198 °C | O=C(NCc1ccn(-c2cc3nc(C(=O)O)c(=O)[nH]c3cc2Cl)c1)Nc1cccc2ccccc12
20 | 82 °C | On1c(-c2ccc(F)cc2)nc2ccc(Cn3ccnc3)cc21

Row | melting point | SMILES
21 | 177 to 178 °C | Cc1cc(NCc2ccccc2)c(N)c(Cl)n1
22 | 185 to 186 °C | O=C(CO)NCCCn1c(-c2ccc(Br)cc2)csc1=Nc1ccccc1
23 | 111 to 142 °C | COCCNC(=O)CN1CCN(Cc2ccc3c(c2)NC(=O)C(C)O3)CC1 (stereo not given)
24 | 75 °C | O=C(CC1=CC(OC2CCCCO2)CC1=O)Oc1ccc2ccccc2c1 (stereo not given)
25 | 75 to 77 °C | O=C(C=C(O)c1cccnc1)C1CCN(CCc2ccccc2)CC1
26 | 121 to 123 °C | CC1c2ccccc2CCN1C(=O)c1cc2ncc(Br)cn2n1 (stereo not given)
27 | 185 to 187 °C | CCCC(=O)c1cnc2c(C(N)=O)cccc2c1Nc1ccccc1C
28 | 144 to 147 °C | O=C(Nc1ccc(CN2C(=O)[C@H]3CCC[C@H]3N(C(=O)CN3C(=O)c4ccccc4C3=O)c3ccccc32)cc1)OCc1ccccc1 (relative stereo)
29 | 193 to 196 °C | COc1ccc(NC(=O)c2ccc(COc3ccc4c(c3)CCC(CCN3CCCCC3)C4)cc2)cc1 (stereo not given)
30 | 52.5 to 54 °C | COCCOCn1c(Cl)c(C=O)c2ccccc21
31 | 106 °C | COC(=O)C1(CCN(C)C)c2ccccc2N(C)c2ccc(Cl)cc21 (stereo not given)
32 | 167 to 168 °C | O=Cc1ccc(OC[C@H]2CCCN2c2ncnc3[nH]cnc23)c2ccccc12
33 | 220 °C | COc1cc(OC)c(-c2cccs2)cc1C#CC(=O)c1ccc(C(=O)O)cc1
34 | 92 to 93 °C | CCOP(=O)(Cc1ccc(-c2nc3cccc(Cl)c3o2)cc1)OCC
35 | 90 to 92 °C | COc1cc(/C=C/C(=O)Nc2ccccc2C(=O)O)ccc1OC1CCCCC1
36 | 245 to 251 °C | COc1cccc2c1sn1c3ccccc3c(=O)cc21
37 | 182 °C | O=c1c(Br)c(OCc2ccccc2)ccn1Cc1cccc(C(F)(F)F)c1
38 | 78 to 80 °C | CNC(=O)c1cc2c(Oc3ccc(Br)cc3)cncc2s1
39 | 204 to 205 °C | OP(O)C1(NC(c2ccccc2)c2ccccc2)CCCC1
40 | 160 to 162 °C | COc1ccc(S(=O)(=O)Nc2cccnc2NC(=O)c2ccccc2C)cc1

The remaining lines, values behind:

Row | SMILES | melting point
41 | Cc1cc2cn[nH]c2c(C(=O)NC(C)C)c1NC(=O)c1cc(OCC(F)(F)F)nn1-c1ncccc1Cl | 247 to 250 °C
42 | COC(=O)c1nc(S(C)(=O)=O)ncc1Cl | 96 °C
43 | Cc1ccc(/C=C/[C@@]2(O)C[C@H](O)CC(=O)O2)cc1 | 126 to 127 °C
44 | Cc1nc(N2C[C@@H](C)C[C@H](C)C2)c2nc(-c3ccccc3)cc-2[nH]1 (relative stereo) | 226 to 227 °C
45 | CCn1cc[nH]c(=O)c1=O | 173 to 174 °C
46 | CCCc1c(OCC(=O)OCC)ccc(C(C)=O)c1O | 61 to 64 °C
47 | CNc1c(NCCSCc2[nH]cnc2C)c(=O)c1=O | 208 °C
48 | Cc1ccc(S(=O)(=O)N(c2ccc([N+](=O)[O-])cc2Cl)C(C)C)cc1 | 154 to 157 °C
49 | CC1(C)N=C(c2ccccc2Cl)c2cc(N)ccc2N(CCO)C1=O | 175 to 176 °C
50 | CC(=O)Oc1cc2c(cc1C(C)(C)C)OC(C)(COc1ccc([N+](=O)[O-])cc1)CC2=O (stereo not given) | 82 to 84 °C
51 | Cc1cc(-c2nnc3c4ccccc4c(OCc4nc[nH]n4)nn23)no1 | 260 to 262 °C
52 | CCCCOC(=O)c1cc(=O)c2c(cc(OC)c3ncccc32)[nH]1 | 212 to 213 °C
53 | Cc1ccc(N)c(C)c1C1OCCO1 | 100 to 103 °C
54 | Cc1cccnc1NN | 119 °C
55 | CCC(C(O)c1ccc(Cl)cc1)n1ncn(-c2ccc(N3CCN(c4ccccn4)CC3)nc2)c1=O (stereo not given) | 171 °C
56 | Cn1cnc(S(=O)(=O)N2CCC3(CC2)CSC2=C(O3)c3ccccc3C(=O)C2=O)c1 | 256 to 257 °C
57 | CC(=O)OC1CSC(Oc2ccc(-c3cccnc3C)nc2)C(OC(C)=O)C1OC(C)=O (stereo not given) | 198 to 200 °C
58 | CC1(C)CCC(C)(C)c2c1ccc(C=Nc1ccc(C(N)=O)cc1)c2N | 247 to 249 °C
59 | CCOC(=O)c1cnn(C)c1O | 134 to 135 °C
60 | COc1ccnc(C(C)Sc2nc3cc(OC(F)(F)C(F)Cl)ccc3[nH]2)c1 (stereo not given) | 120 to 122 °C

Row | SMILES | melting point
61 | Cc1ccc2c(N3CCN(C)C3=O)ccnc2c1NC(=O)c1c(Cl)cccc1Cl | > 250 °C
62 | CN1C(=O)C(C)(C)N=C(c2ccccc2F)c2c1cc(Br)c(N)c2Br | 202 °C
63 | CC(CO)N1C(=O)N(c2ccc(Cl)cc2)CC1C (stereo not given) | 108 to 110 °C
64 | COc1ccc(-c2ncc(C(F)(F)F)cc2Cl)cc1 | 71 to 72 °C
65 | C#CCc1c(C)nc2c(OCc3c(C)cccc3N(C)C(C)=O)cccn12 | 76 °C
66 | CC(=O)Nc1nc2c(Oc3cc(-c4ccc(C(F)(F)F)nc4NC4CCN(C(C)C)C4)ncn3)cccc2s1 (stereo not given) | 140 to 141 °C
67 | COc1ccc(C(=NO)c2cccc(F)c2F)c(O)c1Cl | 198 to 199 °C
68 | Oc1cccc2c1C[C@@H](O)[C@H](O)C2 (relative stereo) | 183 to 184 °C
69 | CCOC(=O)c1cc(O)c2nc(C)c(C)n2c1 | 219 to 221 °C
70 | CCCCC1(N2CCCC2)CCC(c2[nH]c3ccccc3c2CCc2ccncc2)CC1 (stereo not given) | 165 to 175 °C
71 | CSc1cccc2c1CC(=O)N2 | 198 °C
72 | CC1=C(O)C(=O)C(C)(C(C)O)O1 (stereo not given) | 112 to 114 °C
73 | O=C(Nc1ccc(-c2ncc(-c3ccc(NC(=O)C4CCCCCC4)cc3)[nH]2)cc1)c1ccc(Cl)c(Cl)c1 | 304 to 306 °C
74 | CCOC(=O)c1cc(=O)n(Cc2ccc(S(=O)(=O)O)cc2S(=O)(=O)O)[nH]1 | > 300 °C
75 | CC(C)(C)OC(=O)N1CCC[C@@H](OC(=O)Nc2ccc(Cl)cc2)C1 | 160 to 161 °C
76 | C[C@H]1C=CC2=C[C@@H](O)C[C@H](O)[C@@H]2[C@H]1CC[C@@H]1C[C@@H](O)CC(=O)O1 | 161 to 163 °C
77 | CCONC(=O)n1nc(Oc2c(Cl)cc(C(F)(F)F)cc2Cl)cc1C | 105 to 107 °C
78 | OCC1CCN(c2ccncc2)CC1 | 183 to 185 °C
79 | CC1NC(=O)Nc2ccc(C(=O)CBr)cc21 (stereo not given) | 188 to 190 °C
80 | Cn1nc(C2CCN(C#N)CC2)c2ccc(F)cc21 | 133 to 136 °C

Row | SMILES | melting point
81 | COc1ccc(C(=O)CCCCCBr)c(Cl)c1Cl | 52 to 53 °C
82 | CC(Oc1c(Cl)cccc1Cl)C(N)=O (single isomer, unassigned; (-)) | 192 to 193 °C
83 | CNC(=C[N+](=O)[O-])NCCCCOc1cccc(CCCN(C)C)c1 | 79 to 80.5 °C
84 | COc1ccc(C(=O)c2coc(C(=O)O)cc2=O)cc1 | 185 to 190 °C
85 | Cc1nc(CC(C)C)c(C#N)c(-c2ccc(Cl)cc2)c1C(=O)OC(C)(C)C | 70 to 72 °C
86 | CCOC(=O)C1C(=O)NC(=O)C(C#N)C12CCCCC2 (stereo not given) | 167 to 170 °C
87 | COc1cc(OC)c2c(=O)[nH]c(-c3cc(C)c(OCC(C)(C)O)c(C)c3)cc2c1 | 252 to 254 °C
88 | CCc1nc2cc(Cl)c(Cl)cc2n1C1CC(CO)C(O)C1O (stereo not given) | 191 to 193 °C
89 | CN(C)S(=O)(=O)c1cc(N=C=O)ccc1Cl | 82 to 85 °C
90 | COc1ccccc1OCC1NC(C)(C)C(C(=O)O)S1 (stereo not given) | 136 to 138 °C
91 | COc1ccc2c(c1)C(c1ccc(Cl)cc1)=NC(CC(=O)NC1CCCCC1)c1nnc(C)n1-2 (stereo not given) | > 260 °C
92 | CSc1cnnc(Cl)c1 | 98 to 100 °C
93 | COc1ccc(CC#N)c(CCNC(C)=O)c1OC | 134 to 136 °C
94 | O=C(O)COc1ccc(C(=O)c2ccc(Cl)c(Cl)c2)c(Cl)c1Cl | 165 to 167 °C
95 | CC(=O)c1sccc1CN1C(=O)C(NC(=O)Nc2cccc(C)c2)N=C(c2ccccc2F)c2ccccc21 (racemic) | 222 to 223 °C
96 | Cc1nc(N)nc(Cl)c1C | 212 to 220 °C
97 | CN1CCN(c2ccccc2CC2CCN(c3ccc(F)c(F)c3)C2=O)CC1 (stereo not given) | 130 to 131 °C
98 | COc1cc(F)c(F)cc1C=O | 74 °C
99 | CCCCCCCCCCCCCCCCSCc1ccc(N(C)C)cc1 | 41 to 43 °C
100 | CCOC(=O)CCCCSc1nc2ccccc2[nH]1 | 88 to 90 °C
